The values that follow come from patent EP1534716B1, “HETEROBICYCLIC PYRAZOLE DERIVATIVES AS KINASE INHIBITORS” (priority 2002, dated 2004).

SMILES strings stand for the structures. Where a name gives a salt, the structure may show the parent alone.

Common to all, as to format: biochemical
For one assay, the target named is T1, Aurora-2 (Homo sapiens, UniProt O14965).
T1 sequence (O14965 1-403): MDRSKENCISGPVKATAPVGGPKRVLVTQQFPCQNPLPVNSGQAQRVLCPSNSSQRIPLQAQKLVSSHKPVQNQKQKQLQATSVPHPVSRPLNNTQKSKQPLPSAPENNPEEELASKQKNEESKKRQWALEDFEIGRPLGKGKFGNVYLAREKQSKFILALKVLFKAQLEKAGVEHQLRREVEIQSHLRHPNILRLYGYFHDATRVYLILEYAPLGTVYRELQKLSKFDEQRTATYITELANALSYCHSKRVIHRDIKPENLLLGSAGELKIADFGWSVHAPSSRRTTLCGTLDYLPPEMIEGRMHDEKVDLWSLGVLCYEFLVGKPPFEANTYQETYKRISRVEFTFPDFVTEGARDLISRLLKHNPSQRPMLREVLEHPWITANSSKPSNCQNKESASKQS
Nature of the assay: Inhibition assay of Aurora-2 activity (SPA). The conditions noted are these: 10 µM ATP, 60 minutes at room temperature. Here is the method:
(§1) The inhibiting activity of putative cdk/cyclin inhibitors and the potency of selected compounds is determined through a method of assay based on the use of the SPA technology (Amersham Pharmacia Biotech).
(§2) The assay consists of the transfer of radioactivity labelled phosphate moiety by the kinase to a biotinylated substrate. The resulting 33P-labelled biotinylated product is allowed to bind to streptavidin-coated SPA beads (biotin capacity 130 pmol/mg), and light emitted was measured in a scintillation counter.
(§3) Experimental data were analyzed by the computer program GraphPad Prizm using the four parameter logistic equation: [formula] where x is the logarithm of the inhibitor concentration, y is the response; y starts at bottom and goes to top with a sigmoid shape.
Inhibition assay of Aurora-2 activity
After 60 minutes at room temperature incubation, reaction was stopped and biotinylated peptide captured by adding 100 µl of bead suspension.
Stratification: 100 µl of CsC12 5 M were added to each well and let stand 4 hour before radioactivity was counted in the Top-Count instrument.
IC50 determination: see above

The next assay deals with Cdc7/dbf4 (Homo sapiens, UniProt O00311). The assay is described as follows: Inhibition assay of Cdc7/dbf4 activity (SPA). The conditions noted are these: 2 µM ATP, 60 minutes at 37°C. How it is done:
Inhibition assay of Cdc7/dbf4 activity
The inhibition assay of Cdc7/dbf4 activity is performed according to the following protocol.
The Biotin-MCM2 substrate is trans-phosphorylated by the Cdc7/Dbf4 complex in the presence of ATP traced with γ^33-ATP. The phosphorylated Biotin-MCM2 substrate is then captured by Streptavidin-coated SPA beads and the extent of phosphorylation evaluated by β counting.
The inhibition assay of Cdc7/dbf4 activity was performed in 96 wells plate according to the following protocol.
To each well of the plate were added: • 10 µl substrate (biotinylated MCM2, 6 µM final concentration) • 10 µl enzyme (Cdc7/Dbf4, 17.9 nM final concentration) • 10 µl test compound (12 increasing concentrations in the nM to µM range to generate a dose-response curve) • 10 µl of a mixture of cold ATP (2 µM final concentration) and radioactive ATP (1/5000 molar ratio with cold ATP) was then used to start the reaction which was allowed to take place at 37°C.
Substrate, enzyme and ATP were diluted in 50 mM HEPES pH 7.9 containing 15 mM MgCl2, 2 mM DTT, 3 µM NaVO3, 2mM glycerophosphate and 0.2mg/ml BSA. The solvent for test compounds also contained 10% DMSO.
After incubation for 60 minutes, the reaction was stopped by adding to each well 100 µl of PBS pH 7.4 containing 50 mM EDTA, 1 mM cold ATP, 0.1% Triton X100 and 10 mg/ml streptavidin coated SPA beads.
After 20 min incubation, 110 µL of suspension were withdrawn and transferred into 96-well OPTIPLATEs containing 100 µl of 5M CsCl. After 4 hours, the plates were read for 2 min in a Packard TOP-Count radioactivity reader.
IC50 determination: see above.

The next assay deals with PAK4 (Homo sapiens, UniProt O96013). Nature of the assay: PAK4 inhibition.
PAK4, sequence (O96013 whole entry, species assumed): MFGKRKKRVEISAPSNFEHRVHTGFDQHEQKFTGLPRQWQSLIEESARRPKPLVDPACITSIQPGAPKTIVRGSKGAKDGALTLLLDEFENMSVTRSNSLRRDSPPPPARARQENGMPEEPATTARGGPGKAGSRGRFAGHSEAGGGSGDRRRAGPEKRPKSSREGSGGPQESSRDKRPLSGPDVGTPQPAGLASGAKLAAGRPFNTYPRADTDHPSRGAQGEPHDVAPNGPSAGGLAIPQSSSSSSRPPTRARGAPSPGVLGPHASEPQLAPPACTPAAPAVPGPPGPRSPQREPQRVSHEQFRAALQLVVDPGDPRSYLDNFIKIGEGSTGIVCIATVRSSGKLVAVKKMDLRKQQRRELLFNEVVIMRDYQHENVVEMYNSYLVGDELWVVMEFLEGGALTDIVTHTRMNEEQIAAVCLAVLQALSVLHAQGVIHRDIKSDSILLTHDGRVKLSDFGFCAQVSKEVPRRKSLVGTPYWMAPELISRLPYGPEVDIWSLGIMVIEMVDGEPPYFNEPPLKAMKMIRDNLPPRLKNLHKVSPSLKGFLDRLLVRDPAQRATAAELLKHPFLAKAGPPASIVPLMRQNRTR
Another assay concerns the target cdk2/Cyclin A (Homo sapiens, UniProt P24941). Nature of the assay: Inhibition assay of cdk2/Cyclin A activity (SPA). Particulars: 10 µM ATP, 60 min at room temperature. Here is the method: as §1, §2
Inhibition assay of cdk2/Cyclin A activity
Kinase reaction: 4 µM in house biotinylated histone H1 (Sigma # H-5505) substrate, 10 µM ATP (0.1 microCi P^33γ-ATP), 1.1 nM Cyclin A/CDK2 complex, inhibitor in a final volume of 30 µl buffer (TRIS HCl 10 mM pH 7.5, MgCl2 10 mM, DTT 7.5 mM + 0.2 mg/ml BSA) were added to each well of a 96 U bottom. After incubation for 60 min at room temperature, the reaction was stopped by addition of 100 µl PBS buffer containing 32 mM EDTA, 500 µM cold ATP, 0.1% Triton X100 and 10mg/ml streptavidin coated SPA beads. After 20 min incubation, 110 µL of suspension were withdrawn and transferred into 96-well OPTIPLATEs containing 100 µl of 5M CsCl. After 4 hours, the plates were read for 2 min in a Packard TOP-Count radioactivity reader.
as §3

Cdc7/dbf4, sequence (O00311 whole entry, species assumed): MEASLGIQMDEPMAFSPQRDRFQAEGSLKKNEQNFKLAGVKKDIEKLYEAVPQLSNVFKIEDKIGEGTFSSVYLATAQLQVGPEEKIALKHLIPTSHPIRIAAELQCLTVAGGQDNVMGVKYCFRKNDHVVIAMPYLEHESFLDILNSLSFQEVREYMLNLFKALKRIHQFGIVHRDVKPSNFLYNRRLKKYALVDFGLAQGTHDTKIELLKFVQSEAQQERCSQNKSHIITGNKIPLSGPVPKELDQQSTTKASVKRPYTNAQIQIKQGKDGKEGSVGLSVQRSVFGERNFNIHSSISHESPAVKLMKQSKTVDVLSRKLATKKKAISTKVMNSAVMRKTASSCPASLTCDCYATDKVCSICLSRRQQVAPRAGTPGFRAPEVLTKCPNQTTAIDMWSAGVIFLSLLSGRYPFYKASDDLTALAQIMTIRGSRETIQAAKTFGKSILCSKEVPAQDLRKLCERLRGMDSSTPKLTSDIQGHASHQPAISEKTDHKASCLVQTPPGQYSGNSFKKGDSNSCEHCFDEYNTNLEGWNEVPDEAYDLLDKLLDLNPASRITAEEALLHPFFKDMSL
Cdc7/dbf4, sequence (Q9UBU7 whole entry partner, species assumed): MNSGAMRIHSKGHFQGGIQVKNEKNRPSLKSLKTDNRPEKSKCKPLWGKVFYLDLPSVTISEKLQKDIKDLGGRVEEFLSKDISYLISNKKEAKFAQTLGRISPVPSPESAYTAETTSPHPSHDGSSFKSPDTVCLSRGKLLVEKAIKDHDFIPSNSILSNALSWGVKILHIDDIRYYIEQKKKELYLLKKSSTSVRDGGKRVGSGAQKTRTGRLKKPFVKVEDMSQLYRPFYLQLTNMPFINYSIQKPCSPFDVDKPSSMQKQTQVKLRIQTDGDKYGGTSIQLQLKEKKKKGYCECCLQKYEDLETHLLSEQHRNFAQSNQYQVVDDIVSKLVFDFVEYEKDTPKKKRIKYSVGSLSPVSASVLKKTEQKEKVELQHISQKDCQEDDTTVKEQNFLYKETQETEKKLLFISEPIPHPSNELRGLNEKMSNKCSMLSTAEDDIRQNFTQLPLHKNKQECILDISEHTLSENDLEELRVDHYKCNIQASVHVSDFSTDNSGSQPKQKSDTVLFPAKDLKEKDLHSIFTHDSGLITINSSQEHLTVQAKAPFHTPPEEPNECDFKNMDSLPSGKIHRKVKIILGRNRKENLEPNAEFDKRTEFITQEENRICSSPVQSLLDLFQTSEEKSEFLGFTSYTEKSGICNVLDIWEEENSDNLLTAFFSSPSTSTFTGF

Turning to `COC(=O)c1cc2[nH]nc(NC(=O)c3ccc(N4CCOCC4)cc3)c2s1` [Compound 52, methyl 3-[(4-morpholin-4-ylbenzoyl)amino]-1H-thieno[3,2-c]pyrazole-5-carboxylate], the 50% inhibitory concentration (IC50) against Aurora-2 is less than 100 nM; against Cdc7/dbf4, less than 1000 nM; at PAK4 it was less than 500 nM.
As for `O=C(Nc1n[nH]c2cc(C(=O)O)sc12)c1ccc(N2CCOCC2)cc1` [Compound 57, 3-[(4-morpholin-4-ylbenzoyl)amino]-1H-thieno[3,2-c]pyrazole-5-carboxylic acid], the half-inhibitory concentration (IC50) is less than 100 nM at Aurora-2, less than 500 nM on cdk2/Cyclin A and less than 1000 nM on Cdc7/dbf4.
Take `CCNC(=O)c1cc2[nH]nc(NC(=O)c3ccc(N4CCN(C)CC4)cc3)c2s1` [Compound 93, N-ethyl-3-{[4-(4-methylpiperazin-1-yl)benzoyl]amino}-1H-thieno[3,2-c]pyrazole-5-carboxamide dihydrochloride]: the IC50 at cdk2/Cyclin A was less than 500 nM; against Cdc7/dbf4 it was less than 1000 nM; against PAK4 it was less than 500 nM.
As to `CN1CCN(c2ccc(C(=O)Nc3n[nH]c4cc(C(=O)NCc5ccc(F)cc5)sc34)cc2)CC1` [Compound 95, N-(4-fluorobenzyl)-3-{[4-(4-methylpiperazin-1-yl)benzoyl]amino}-1H-thieno[3,2-c]pyrazole-5-carboxamide], the results for the IC50 at Aurora-2, against Cdc7/dbf4 and at PAK4 were less than 100 nM, less than 1000 nM and less than 500 nM, respectively.
Consider `CN1CCN(c2ccc(C(=O)Nc3n[nH]c4cc(C(=O)NCc5ccccc5F)sc34)cc2)CC1` [Compound 101, N-(2-fluorobenzyl)-3-{[4-(4-methylpiperazin-1-yl)benzoyl]amino}-1H-thieno[3,2-c]pyrazole-5-carboxamide], for which the results for the IC50 against Aurora-2, against Cdc7/dbf4 and at PAK4 were less than 100 nM, less than 1000 nM and less than 500 nM, respectively.
Regarding `CN1CCN(c2ccc(C(=O)Nc3n[nH]c4cc(C(=O)NCc5ccc(F)cc5F)sc34)cc2)CC1` [Compound 102, N-(2,4-difluorobenzyl)-3-{[4-(4-methylpiperazin-1-yl)benzoyl]amino}-1H-thieno[3,2-c]pyrazole-5-carboxamide], the IC50 against Aurora-2 is less than 100 nM; at Cdc7/dbf4 it was less than 1000 nM; against PAK4, less than 500 nM.
Regarding `CN1CCN(c2ccc(C(=O)Nc3n[nH]c4cc(C(=O)NCc5ccco5)sc34)cc2)CC1` [Compound 114, N-(2-furylmethyl)-3-{[4-(4-methylpiperazin-1-yl)benzoyl]amino}-1H-thieno[3,2-c]pyrazole-5-carboxamide], the IC50 at Aurora-2 was less than 100 nM; at cdk2/Cyclin A it was less than 500 nM; at Cdc7/dbf4, less than 1000 nM; at PAK4 it was less than 500 nM.
On to `CN1CCN(c2ccc(C(=O)Nc3n[nH]c4cc(C(=O)NCc5cccs5)sc34)cc2)CC1` [Compound 115, 3-{[4-(4-methylpiperazin-1-yl)benzoyl]amino}-N-(thien-2-ylmethyl)-1H-thieno[3,2-c]pyrazole-5-carboxamide], for which the IC50 at Aurora-2 was less than 100 nM; against Cdc7/dbf4, less than 1000 nM; against PAK4 it was less than 500 nM.
Consider `CN1CCN(c2ccc(C(=O)Nc3n[nH]c4cc(C(=O)NCc5cccn5C)sc34)cc2)CC1` [Compound 123, 3-{[4-(4-methylpiperazin-1-yl)benzoyl]amino}-N-[(1-methyl-1H-pyrrol-2-yl)methyl]-1H-thieno[3,2-c]pyrazole-5-carboxamide], for which the IC50 against Aurora-2 was less than 100 nM; against Cdc7/dbf4, less than 1000 nM.
As for `CN1CCN(c2ccc(C(=O)Nc3n[nH]c4cc(C(=O)NCc5ccoc5)sc34)cc2)CC1` [Compound 124, N-(3-furylmethyl)-3-{[4-(4-methylpiperazin-1-yl)benzoyl]amino}-1H-thieno[3,2-c]pyrazole-5-carboxamide], the IC50 is less than 100 nM on Aurora-2, less than 500 nM on cdk2/Cyclin A and less than 1000 nM on Cdc7/dbf4.
Consider `CC[C@@H](NC(=O)c1cc2[nH]nc(NC(=O)c3ccc(N4CCOCC4)cc3)c2s1)c1ccccc1` [Compound 131, 3-[(4-morpholin-4-ylbenzoyl)amino]-N-[(1R)-1-phenylpropyl]-1H-thieno[3,2-c]pyrazole-5-carboxamide], for which the results for the IC50 at Aurora-2 and against PAK4 were less than 100 nM and less than 500 nM, respectively.
On the same counts, the results for `O=C(Nc1n[nH]c2cc(C(=O)NCc3cccc(F)c3)sc12)c1ccc(N2CCOCC2)cc1` [Compound 132, N-(3-fluorobenzyl)-3-[(4-morpholin-4-ylbenzoyl)amino]-1H-thieno[3,2-c]pyrazole-5-carboxamide] are less than 100 nM and less than 500 nM.
In the case of `O=C(Nc1n[nH]c2cc(C(=O)NCc3ccc(F)cc3)sc12)c1ccc(N2CCOCC2)cc1` [Compound 133, N-(4-fluorobenzyl)-3-[(4-morpholin-4-ylbenzoyl)amino]-1H-thieno[3,2-c]pyrazole-5-carboxamide], the results for the IC50 at Aurora-2 and at PAK4 were less than 100 nM and less than 500 nM, respectively.
Consider `O=C(Nc1n[nH]c2cc(C(=O)O)oc12)c1ccc(N2CCOCC2)cc1` [Compound 161, 3-[(4-morpholin-4-ylbenzoyl)amino]-1H-furo[3,2-c]pyrazole-5-carboxylic acid], for which the IC50 against Aurora-2 was less than 100 nM; at cdk2/Cyclin A, less than 500 nM; on Cdc7/dbf4, less than 1000 nM.
With `CN1CCN(c2ccc(C(=O)Nc3n[nH]c4cc(C(=O)O)oc34)cc2)CC1` [Compound 162, 3-{[4-(4-methylpiperazin-1-yl)benzoyl]amino}-1H-furo[3,2-c]pyrazole-5-carboxylic acid], the IC50 against Aurora-2 is less than 100 nM; against Cdc7/dbf4, less than 1000 nM.
In the case of `O=C(Nc1n[nH]c2cc(C(=O)O)oc12)c1ccc(F)cc1` [Compound 163, 3-[(4-fluorobenzoyl)amino]-1H-furo[3,2-c]pyrazole-5-carboxylic acid], the IC50 on Aurora-2 was less than 100 nM; on PAK4, less than 500 nM.
Consider `CCC(NC(=O)c1cc2[nH]nc(NC(=O)c3ccc(N4CCOCC4)cc3)c2o1)c1ccccc1` (stereo not shown) [Compound 164, 3-[(4-morpholin-4-ylbenzoyl)amino]-N-[-1-phenylpropyl]-1H-furo[3,2-c]pyrazole-5-carboxamide], for which the IC50 was less than 100 nM on Aurora-2, less than 500 nM against cdk2/Cyclin A and less than 500 nM against PAK4.
As for `CCC(NC(=O)c1cc2[nH]nc(NC(=O)c3ccc(N4CCN(C)CC4)cc3)c2o1)c1ccccc1` (stereo not shown) [Compound 165, 3-{[4-(4-methylpiperazin-1-yl)benzoyl]amino}-N-[1-phenylpropyl]-1H-furo[3,2-c]pyrazole-5-carboxamide], the IC50 is less than 100 nM against Aurora-2, less than 500 nM on cdk2/Cyclin A and less than 1000 nM at Cdc7/dbf4.
